Assay results from ChEMBL document CHEMBL5154916, “Multiparameter Optimization of Naphthyridine Derivatives as Selective α5-GABAA Receptor Negative Allosteric Modulators” (J Med Chem, 2022).
Calls of active or inactive are those of the source. The rule behind the calls is not given here.

Experiments:
[1] = Ratio of drug level in brain to plasma in Wistar rat at 3 mg/kg, po measured at 1.5 hr post dose; assay type: ADME, organism-based; conditions: brain and plasma, read-out: BPR
Rattus norvegicus = assay: Pro-cognitive activity in neonatal PCP-impaired social recognition Wistar rat model assessed as time spent in recognition of new juveniles at 10 mg/kg, po administered 30 min before acquisition by social recognition test; assay type: functional, organism-based
[2] = Metabolic stability in Wistar rat liver microsomes assessed as intrinsic clearance at 2.5 uM; assay type: ADME, Microsome; conditions: read-out: CLH
[3] = target: Voltage-gated inwardly rectifying potassium channel KCNH2 (Homo sapiens, UniProt Q12809); assay: Inhibition of hERG expressed in CHO cells stably at -80 mV holding potential by automated patch clamp method; assay type: toxicity, cell-based
[4] = Metabolic stability in Wistar rat hepatocyte assessed as intrinsic clearance measured per 10^6 cells; assay type: ADME, cell-based; conditions: hepatocytes, read-out: CLH
[5] = Bioavailability in male dog at 10 mg/kg, po or 3 mg/kg, iv by HPLC-MS/MS analysis; assay type: ADME, organism-based, Canis lupus familiaris; conditions: in vivo
Cytochrome P450 2B6 = target: T1, Cytochrome P450 2B6 (Homo sapiens, UniProt P20813); assay: Inhibition of CYP2B6 (unknown origin); assay type: ADME
T1 sequence (P20813 whole entry): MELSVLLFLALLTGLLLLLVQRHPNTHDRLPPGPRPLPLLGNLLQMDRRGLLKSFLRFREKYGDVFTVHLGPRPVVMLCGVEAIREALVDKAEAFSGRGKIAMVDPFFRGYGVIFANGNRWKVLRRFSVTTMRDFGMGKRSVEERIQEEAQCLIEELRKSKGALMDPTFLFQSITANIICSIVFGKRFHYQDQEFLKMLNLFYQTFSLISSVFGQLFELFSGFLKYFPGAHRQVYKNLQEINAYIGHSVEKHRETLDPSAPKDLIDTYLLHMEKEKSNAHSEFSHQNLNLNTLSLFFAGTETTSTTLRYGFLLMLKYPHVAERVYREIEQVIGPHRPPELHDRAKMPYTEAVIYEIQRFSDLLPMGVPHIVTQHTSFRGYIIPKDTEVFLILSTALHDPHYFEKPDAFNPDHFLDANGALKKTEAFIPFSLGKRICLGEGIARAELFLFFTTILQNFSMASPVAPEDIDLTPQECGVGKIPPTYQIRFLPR

[6] = target: T2, GABA-A receptor; alpha-5/beta-3/gamma-2 (Homo sapiens, UniProt P18507+P28472+P31644); assay: Displacement of [3H]Ro151788 from human recombinant alpha5beta3gamma2 GABAA receptor stably expressed in HEK293 cell membrane assessed as inhibition constant by radioligand binding assay; assay type: cell membranes
T2 sequence (P18507 whole entry): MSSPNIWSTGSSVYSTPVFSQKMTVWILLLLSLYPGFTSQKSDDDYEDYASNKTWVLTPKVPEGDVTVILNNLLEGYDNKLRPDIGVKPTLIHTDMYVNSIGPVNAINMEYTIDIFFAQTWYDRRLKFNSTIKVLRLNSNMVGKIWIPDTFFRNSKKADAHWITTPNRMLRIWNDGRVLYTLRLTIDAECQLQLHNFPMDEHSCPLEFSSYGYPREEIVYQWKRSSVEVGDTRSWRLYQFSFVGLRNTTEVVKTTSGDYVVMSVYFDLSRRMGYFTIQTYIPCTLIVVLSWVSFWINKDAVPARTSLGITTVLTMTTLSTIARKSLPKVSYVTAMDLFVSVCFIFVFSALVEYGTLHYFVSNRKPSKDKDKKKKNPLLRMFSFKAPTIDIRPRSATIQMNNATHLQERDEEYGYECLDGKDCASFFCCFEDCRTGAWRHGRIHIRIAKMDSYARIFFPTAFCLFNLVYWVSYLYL
T2 sequence (P28472 whole entry): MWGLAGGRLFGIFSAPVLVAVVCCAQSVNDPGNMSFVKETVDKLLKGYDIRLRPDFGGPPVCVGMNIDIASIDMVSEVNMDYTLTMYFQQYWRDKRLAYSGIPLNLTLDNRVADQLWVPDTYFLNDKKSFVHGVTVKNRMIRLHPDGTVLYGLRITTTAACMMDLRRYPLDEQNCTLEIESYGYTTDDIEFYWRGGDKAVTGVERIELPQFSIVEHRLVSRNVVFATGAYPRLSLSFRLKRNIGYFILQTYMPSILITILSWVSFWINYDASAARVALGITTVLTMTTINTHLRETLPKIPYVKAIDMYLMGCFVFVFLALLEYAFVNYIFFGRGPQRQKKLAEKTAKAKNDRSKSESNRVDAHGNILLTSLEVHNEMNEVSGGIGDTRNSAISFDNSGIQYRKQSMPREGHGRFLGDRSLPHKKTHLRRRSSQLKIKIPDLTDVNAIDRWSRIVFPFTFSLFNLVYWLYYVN
T2 sequence (P31644 whole entry): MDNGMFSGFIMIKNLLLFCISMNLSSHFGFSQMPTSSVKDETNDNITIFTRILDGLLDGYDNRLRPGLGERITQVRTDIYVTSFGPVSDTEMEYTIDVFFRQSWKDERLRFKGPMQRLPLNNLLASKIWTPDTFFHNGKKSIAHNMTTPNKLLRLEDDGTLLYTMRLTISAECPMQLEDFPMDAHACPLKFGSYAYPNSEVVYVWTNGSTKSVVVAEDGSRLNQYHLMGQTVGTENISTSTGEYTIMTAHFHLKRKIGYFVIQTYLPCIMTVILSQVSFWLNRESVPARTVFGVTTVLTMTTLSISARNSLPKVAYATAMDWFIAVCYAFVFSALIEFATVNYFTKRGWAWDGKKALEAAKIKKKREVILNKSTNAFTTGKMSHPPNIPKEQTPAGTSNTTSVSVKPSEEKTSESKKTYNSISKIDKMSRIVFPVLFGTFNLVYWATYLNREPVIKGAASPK

[7] = Cardiovascular toxicity in po dosed dog assessed as NOAEL; assay type: organism-based, Canis lupus familiaris; conditions: in vivo
Cytochrome P450 2C19 = Cytochrome P450 2C19 (Homo sapiens, UniProt P33261); assay: Inhibition of CYP2C19 (unknown origin); assay type: ADME
[8] = Passive permeability in human Caco-2 cells assessed as permeability damage ratio at 10 uM by HPLC-UV analysis; assay type: ADME, cell-based; conditions: caco-2, 10 µM
[9] = Metabolic stability in human hepatocyte assessed as intrinsic clearance measured per 10^6 cells; assay type: ADME, cell-based; conditions: hepatocytes, read-out: CLH
[10] = […] in po dosed Wistar rat assessed as NED by Irwin test; assay type: organism-based; conditions: in vivo, read-out: ED
[11] = AUC (0 to infinity) in Wistar rat total plasma at 1 mg/kg, iv by HPLC-MS/MS analysis; assay type: ADME, organism-based; set-up: time infinity, dose 1 mg/kg, route iv
Cytochrome P450 2D6 = Cytochrome P450 2D6 (Homo sapiens, UniProt P10635); assay: Inhibition of CYP2D6 (unknown origin); assay type: ADME
[12] = […] in po dosed Wistar rat assessed as convulsive activity by assessing NOAEL by electroconvulsive test; assay type: organism-based; conditions: in vivo

Cytochrome P450 2D6, sequence (P10635 whole entry): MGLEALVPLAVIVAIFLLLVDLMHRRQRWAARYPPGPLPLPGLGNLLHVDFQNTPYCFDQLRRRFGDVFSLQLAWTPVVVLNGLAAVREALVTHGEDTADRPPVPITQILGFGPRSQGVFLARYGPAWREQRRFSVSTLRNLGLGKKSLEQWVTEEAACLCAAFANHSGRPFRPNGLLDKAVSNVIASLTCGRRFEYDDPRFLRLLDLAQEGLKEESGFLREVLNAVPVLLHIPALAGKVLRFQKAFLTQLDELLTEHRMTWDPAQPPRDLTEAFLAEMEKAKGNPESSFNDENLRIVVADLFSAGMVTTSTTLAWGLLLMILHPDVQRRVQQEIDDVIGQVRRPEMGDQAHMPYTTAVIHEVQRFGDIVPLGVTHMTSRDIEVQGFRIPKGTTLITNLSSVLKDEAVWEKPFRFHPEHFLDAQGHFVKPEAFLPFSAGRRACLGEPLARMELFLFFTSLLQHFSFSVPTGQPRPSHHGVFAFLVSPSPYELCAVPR
Voltage-gated inwardly rectifying potassium channel KCNH2, sequence (Q12809 whole entry): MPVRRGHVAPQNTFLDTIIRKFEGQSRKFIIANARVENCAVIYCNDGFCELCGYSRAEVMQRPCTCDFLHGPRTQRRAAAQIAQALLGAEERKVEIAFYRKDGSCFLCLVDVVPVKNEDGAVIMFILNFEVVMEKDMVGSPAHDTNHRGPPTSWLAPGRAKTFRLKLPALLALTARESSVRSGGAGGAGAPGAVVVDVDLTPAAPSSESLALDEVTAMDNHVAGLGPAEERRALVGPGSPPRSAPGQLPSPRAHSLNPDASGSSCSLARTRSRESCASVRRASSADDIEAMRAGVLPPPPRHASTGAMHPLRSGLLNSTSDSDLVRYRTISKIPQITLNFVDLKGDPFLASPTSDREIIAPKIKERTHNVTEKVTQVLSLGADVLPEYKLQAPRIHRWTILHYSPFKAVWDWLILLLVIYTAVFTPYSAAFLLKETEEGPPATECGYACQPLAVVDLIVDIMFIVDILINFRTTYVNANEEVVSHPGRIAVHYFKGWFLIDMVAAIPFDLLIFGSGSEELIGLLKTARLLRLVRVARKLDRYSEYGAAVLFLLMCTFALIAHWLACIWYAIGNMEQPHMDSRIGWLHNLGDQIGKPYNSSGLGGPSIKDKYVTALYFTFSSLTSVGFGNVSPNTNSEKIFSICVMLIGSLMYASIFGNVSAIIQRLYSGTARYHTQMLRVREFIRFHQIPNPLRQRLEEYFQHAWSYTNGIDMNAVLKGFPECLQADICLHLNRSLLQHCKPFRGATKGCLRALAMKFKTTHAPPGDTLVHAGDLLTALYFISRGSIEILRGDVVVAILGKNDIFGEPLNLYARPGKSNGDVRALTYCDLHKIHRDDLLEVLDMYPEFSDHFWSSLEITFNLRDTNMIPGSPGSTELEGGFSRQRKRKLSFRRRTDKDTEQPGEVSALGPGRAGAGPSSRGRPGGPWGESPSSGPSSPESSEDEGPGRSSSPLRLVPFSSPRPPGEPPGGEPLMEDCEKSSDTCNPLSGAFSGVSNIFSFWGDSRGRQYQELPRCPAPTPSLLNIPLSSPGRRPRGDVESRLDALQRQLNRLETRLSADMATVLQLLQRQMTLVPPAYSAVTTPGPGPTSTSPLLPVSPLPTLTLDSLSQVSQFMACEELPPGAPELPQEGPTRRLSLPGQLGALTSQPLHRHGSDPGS
Cytochrome P450 2C19, sequence (P33261 whole entry): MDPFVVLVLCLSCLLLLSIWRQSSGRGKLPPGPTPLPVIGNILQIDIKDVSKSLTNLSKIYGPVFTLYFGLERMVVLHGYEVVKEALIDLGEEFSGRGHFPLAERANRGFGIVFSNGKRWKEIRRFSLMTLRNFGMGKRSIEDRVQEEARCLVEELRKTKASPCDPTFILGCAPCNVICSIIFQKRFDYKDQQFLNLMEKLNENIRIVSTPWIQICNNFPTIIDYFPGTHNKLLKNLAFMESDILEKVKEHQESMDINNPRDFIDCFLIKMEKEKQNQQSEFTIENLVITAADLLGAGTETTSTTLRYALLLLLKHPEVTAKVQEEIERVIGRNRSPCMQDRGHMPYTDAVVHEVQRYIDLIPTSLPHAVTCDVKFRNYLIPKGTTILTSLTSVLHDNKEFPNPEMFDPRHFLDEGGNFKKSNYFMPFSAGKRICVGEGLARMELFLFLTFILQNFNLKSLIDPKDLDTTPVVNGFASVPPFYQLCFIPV

In the case of `Cc1onc(-c2ccc(F)cc2)c1COc1ccc2c(n1)CCN(C(=O)CS(C)(=O)=O)C2`, the Kp at 1.5 h [1] is reported as 6.3, the Activity (Rattus norvegicus) is reported as “Active” and the microsomal CLint at 2.5 µM [2] is reported as 29 µL/min/mg. For the same molecule, the IC50 [3] was 6.2 µM, the hepatocyte CLint [4] was 19 µL/min/1e6 cells and the bioavailability [5] was 12.6%. For the same molecule, the IC50 (Cytochrome P450 2B6) was 20.8 µM, the Ki [6] was 4.1 nM and the NOAEL [7] was ≥ 70 mg/kg. It also gave an IC50 (Cytochrome P450 2C19) of 14.6 µM, a Ratio [8] of 29 and a hepatocyte CLint [9] of 3 µL/min/1e6 cells. For the same molecule, the NOAEL [10] was ≥ 300 mg/kg, the AUC(0-inf) [11] was 407 ng·h/mL and the IC50 (Cytochrome P450 2D6) was > 50 µM. The NOAEL [12] was ≥ 1000 mg/kg.
